Source: patent publication US20140142155A1, “METHOD OF TREATING THROMBOCYTOPENIA” (GlaxoSmithKline LLC, priority 2008, published 2014)

Columns and labels:
Solubility = type: physicochemical
healthy adult subjects = assay: QT/QTc double-blind placebo- and positive-controlled crossover trial; type: in vivo, human; details: 400 mg, single oral dose
Experimental: The effects of Promacta® at doses up to 150 mg daily for 5 days (supratherapeutic doses) on the QT/QTc interval was evaluated in a double-blind, randomized, placebo- and positive-controlled (moxifloxacin 400 mg, single oral dose) crossover trial in healthy adult subjects.

Row | Structure (SMILES) | solubility in water (Solubility) | solubility in aqueous buffer (Solubility; pH range of 1 to 7.4) | QTc effect of positive control (healthy adult subjects)
1 | CC1=NN(c2ccc(C)c(C)c2)C(=O)/C1=N\Nc1cccc(-c2cccc(C(=O)O)c2)c1O.NCCO.NCCO [Eltrombopag olamine, 3′-{(2Z)-2-[1-(3,4-dimethylphenyl)-3-methyl-5-oxo-1,5-dihydro-4H-pyrazol-4-ylidene]hydrazino}-2′-hydroxy-3-biphenylcarboxylic acid-2-aminoethanol (1:2)] | sparingly soluble | practically insoluble | –
2 | COc1c(N2C[C@@H]3CCCN[C@@H]3C2)c(F)cc2c(=O)c(C(=O)O)cn(C3CC3)c12 [moxifloxacin] | – | – | significant QTc prolongation
